# Test results published in PubChem BioAssay AID1845203 (Molecular Pharmacology Branch, DTP, NCI, 2023).
# Test system: G-401 tumor spheroids, viability % test/control
# Experiment: Anticancer human tumor G-401 cell line growth inhibition;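 further: spheroids exposed to compound for 7 days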;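 on viability, T/C: 100% = DMSO vehicle-treated spheroids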
# Settings: spheroids with HUVEC and MSC; for IC50: curve of first compound; for viability, T/C: stronger effect = lower value
# Method in brief: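 Complex spheroids of malignant cells with endothelial cells and mesenchymal stem cells; agents alone or combined, from near clinical Cmax (or 10 microM if unknown) down in half-log steps, 0.25% DMSO final.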
# [1] = second compound 0.003 µM, first compound 0.0316 µM
# [2] = second compound 0.003 µM, first compound 0.1 µM
# [3] = second compound 0.003 µM, first compound 0.316 µM
# [4] = second compound 0.003 µM, first compound 1 µM
# [5] = second compound 0.003 µM, first compound 3.16 µM
# [6] = second compound 0.003 µM, first compound 10 µM
# [7] = second compound 0.00949 µM, first compound 0.0316 µM
# [8] = second compound 0.00949 µM, first compound 0.1 µM
# [9] = second compound 0.00949 µM, first compound 0.316 µM
# [10] = second compound 0.00949 µM, first compound 1 µM
# [11] = second compound 0.00949 µM, first compound 3.16 µM
# [12] = second compound 0.00949 µM, first compound 10 µM
# [13] = second compound 0.03 µM, first compound 0.0316 µM
# [14] = second compound 0.03 µM, first compound 0.1 µM
# [15] = second compound 0.03 µM, first compound 0.316 µM
# [16] = second compound 0.03 µM, first compound 1 µM
# [17] = second compound 0.03 µM, first compound 3.16 µM
# [18] = second compound 0.03 µM, first compound 10 µM
# [19] = second compound 0.0949 µM, first compound 0.0316 µM
# [20] = second compound 0.0949 µM, first compound 0.1 µM
# [21] = second compound 0.0949 µM, first compound 0.316 µM
# [22] = second compound 0.0949 µM, first compound 1 µM
# [23] = second compound 0.0949 µM, first compound 3.16 µM
# [24] = second compound 0.0949 µM, first compound 10 µM
# [25] = second compound 0.3 µM, first compound 0.0316 µM
# [26] = second compound 0.3 µM, first compound 0.1 µM
# [27] = second compound 0.3 µM, first compound 0.316 µM
# [28] = second compound 0.3 µM, first compound 1 µM
# [29] = second compound 0.3 µM, first compound 3.16 µM
# [30] = second compound 0.3 µM, first compound 10 µM
SMILES,IC50 (second compound 0.003 µM),IC50 (second compound 0.00949 µM),IC50 (second compound 0.03 µM),IC50 (second compound 0.0949 µM),IC50 (second compound 0.3 µM),"viability, T/C [1]","viability, T/C [2]","viability, T/C [3]","viability, T/C [4]","viability, T/C [5]","viability, T/C [6]","viability, T/C [7]","viability, T/C [8]","viability, T/C [9]","viability, T/C [10]","viability, T/C [11]","viability, T/C [12]","viability, T/C [13]","viability, T/C [14]","viability, T/C [15]",other results
CC(C)n1c(=O)n(C)c2cnc3cc(F)c(-c4ccc(OCCCN5CCCCC5)nc4)cc3c21 + CC[C@@]1(O)C(=O)OCc2c1cc1n(c2=O)Cc2cc3c(CN(C)C)c(O)ccc3nc2-1,< 31.6 nM,< 31.6 nM,< 31.6 nM,< 31.6 nM,< 31.6 nM,18.3%,20.1%,19.8%,22.7%,16.1%,10.8%,12.9%,15.5%,14.9%,14.6%,12.9%,7.82%,13.8%,11.8%,13.9%,"viability, T/C [16]: 15.1%; viability, T/C [17]: 9.27%; viability, T/C [18]: 4.89%; viability, T/C [19]: 10.2%; viability, T/C [20]: 9.71%; viability, T/C [21]: 10.3%; viability, T/C [22]: 12.7%; viability, T/C [23]: 8.85%; viability, T/C [24]: 4.85%; viability, T/C [25]: 5.28%; viability, T/C [26]: 5.27%; viability, T/C [27]: 5.71%; viability, T/C [28]: 6.45%; viability, T/C [29]: 6.65%; viability, T/C [30]: 2.79%"
COc1ccc([C@@H](O)c2cc(-c3ncnc4cc(N5CCOCC5)ccc34)c(F)cc2Cl)nn1 + CC[C@@]1(O)C(=O)OCc2c1cc1n(c2=O)Cc2cc3c(CN(C)C)c(O)ccc3nc2-1,864 nM,< 31.6 nM,< 31.6 nM,< 31.6 nM,< 31.6 nM,84.4%,84.2%,66.6%,48.3%,23.6%,9.59%,43.5%,41.3%,40.5%,26.8%,11.7%,5.69%,16.9%,15.9%,11.2%,"viability, T/C [16]: 8.51%; viability, T/C [17]: 5.48%; viability, T/C [18]: 3.09%; viability, T/C [19]: 7.39%; viability, T/C [20]: 7.68%; viability, T/C [21]: 6.35%; viability, T/C [22]: 5.25%; viability, T/C [23]: 3.31%; viability, T/C [24]: 1.7%; viability, T/C [25]: 4.49%; viability, T/C [26]: 4.63%; viability, T/C [27]: 3.66%; viability, T/C [28]: 2.59%; viability, T/C [29]: 0.94%; viability, T/C [30]: 0.33%"
